In patent US9642889B2, “Macrocyclic inhibitors of Flaviviridae viruses” (Selcia Limited, priority 2012, dated 2017):
Where two headings read alike, the source gives them in different places.

Experiments:
[1] = system: Huh-7 HCV replicon cells (1b replicon); assay: anti-HCV activity in Huh-7 cell line harboring a HCV replicon (luciferase readout); format: cell-based; conditions: for EC50: inhibition of viral replication, Huh-7 HCV replicon cells, 3 days, read-out: EC50; for inhibition at 1 µM: Huh-7, read-out: Replicon 1b % inhibition at 1 μM, 1b replicon, 1 μM compound; for Replicon 1b % inhibition at 1 μM: 1b replicon, 1 μM compound
cyclophilin A = cyclophilin A (Homo sapiens, UniProt P62937); assay: Cyclophilin A TR-FRET competitive binding assay; conditions: competition with CsA-Cy5 for His-tagged CypA, two-hour incubation
Sequence of cyclophilin A (P62937 whole entry, species assumed): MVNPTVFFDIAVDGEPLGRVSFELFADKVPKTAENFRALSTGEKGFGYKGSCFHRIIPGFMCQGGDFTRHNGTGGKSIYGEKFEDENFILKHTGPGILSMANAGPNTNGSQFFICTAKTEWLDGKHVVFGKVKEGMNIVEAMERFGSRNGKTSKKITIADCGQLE
Method: Cyclophilin A TR-FRET Competitive Binding Assay
Inhibitor potency was measured using a competitive binding assay with a time-resolved fluorescence resonance energy transfer (TR-FRET) readout. […] An IC50 value was calculated using a four-parameter logistic fit.

| Structure (SMILES) | EC50 ([1]; Hepatitis C virus, Huh-7, 72 h) [nM] | inhibition at 1 µM ([1]; Hepatitis C virus) [%] | IC50 (cyclophilin A) [nM] | Replicon 1b % inhibition at 1 μM [1] [%] | EC50 [1] [nM] |
| --- | --- | --- | --- | --- | --- |
| CC(C)[C@@H]1OC(=O)C2(/C=C/c3ccc4ccc(nc4c3)[C@@H](C)NC(=O)[C@@H]3CCCN(N3)C(=O)[C@H](C)NC1=O)CCOCC2 [Compound 88] | < 1000 | 100 |  |  |  |
| CO[C@H](C)[C@@H]1OC(=O)C(C)(C)/C=C/c2ccc3ccc(nc3c2)[C@@H](C)NC(=O)[C@@H]2CCCN(N2)C(=O)[C@H](C)NC1=O [Compound 60] | < 1000 | 96 | < 100 |  |  |
| CC(C)[C@@H]1OC(=O)[C@@](C)(CO)CCc2ccc3ccc(nc3c2)[C@@H](C)NC(=O)[C@@H]2CCCN(N2)C(=O)[C@H](C)NC1=O [Compound 30] | < 1000 | 84 | < 100 |  |  |
| CC(C)[C@@H]1N[C@H](C(F)(F)F)C(C)(C)/C=C/c2ccc3ccc(nc3c2)[C@@H](C)OC(=O)[C@@H]2CCCN(N2)C(=O)[C@H](C)NC1=O [Compound 31] | < 1000 | 88 | < 100 |  |  |
| CC(C)[C@@H]1OC(=O)[C@H](C)[C@H](O)CC/C=C/c2cccc(c2)[C@@H](C)NC(=O)[C@@H]2CCCN(N2)C(=O)[C@H](C)NC1=O [Compound 7, (E)-(2R,5S,11S,14S,17R,18R)-18-Hydroxy-14-isopropyl-2,11,17-trimethyl-15-oxa-3,9,12,28-tetraaza-tricyclo[21.3.1.1*5,9*]octacosa-1(26),21,23(27),24-tetraene 4,10,13,16-tetraone] | < 1000 | 94 | < 100 |  |  |
| CO[C@@H]1/C=C/c2cc3cc(ccc3cn2)[C@@H](C)NC(=O)[C@@H]2CCCN(N2)C(=O)[C@H](C)NC(=O)[C@H](C(C)C)OC(=O)[C@@H]1C [Compound 2] | < 1000 | 98 | < 100 |  |  |
| CCC[C@@H]1C/C=C/c2cc3cc(ccc3cn2)[C@@H](C)NC(=O)[C@@H]2CCCN(N2)C(=O)[C@H](C)NC(=O)[C@H](C(C)C)OC1=O [Compound 4] | < 1000 | 100 | < 100 |  |  |
| CC(C)[C@@H]1OC(=O)C(C)(C)/C=C/c2ccc3ccc(nc3c2)CNC(=O)[C@@H]2CCCN(N2)C(=O)[C@H](C)NC1=O [Compound 37] |  |  | < 100 |  |  |
| CC(C)[C@@H]1OC(=O)C(C)(C)/C=C/c2cc3cc(ccc3cn2)[C@@H](C)NC(=O)[C@@H]2CCCN(N2)C(=O)[C@H](C)NC1=O [Compound 69] | < 1000 | 100 |  |  |  |
| CC1NC(=O)C(C(C)C)OC(=O)C2(/C=C/c3ccc4ccc(nc4c3)C(C)NC(=O)C3CCCN(N3)C1=O)CCC(O)CC2 (single isomer, unassigned) [Compound 77] |  |  |  | 56 | < 1000 |
| COC[C@@]1(C)/C=C/c2ccc3ccc(nc3c2)[C@@H](C)N(C)C(=O)[C@@H]2CCCN(N2)C(=O)[C@H](C)NC(=O)[C@H](C(C)C)OC1=O [Compound 38] |  |  | < 100 |  |  |
| COC1CCC2(/C=C/c3ccc4ccc(nc4c3)[C@@H](C)NC(=O)[C@@H]3CCCN(N3)C(=O)[C@H](C)NC(=O)[C@H](C(C)C)OC2=O)CC1 (stereo partly shown) [Compound 92] | < 1000 | 100 |  |  |  |
| CC1NC(=O)C(C(C)C)OC(=O)C2(/C=C/c3ccc4ccc(nc4c3)C(C)NC(=O)C3CCCN(N3)C1=O)CCC(O)CC2 (single isomer, unassigned) [Compound 75] |  |  |  | 100 | < 1000 |
| COC[C@]1(C)/C=C/c2ccc3ccc(nc3c2)[C@@H](C)NC(=O)[C@@H]2CCCN(N2)C(=O)[C@H](C)NC(=O)[C@H](C(C)C)OC1=O [Compound 58] |  |  | < 100 |  |  |
| CC(C)[C@@H]1OC(=O)C2(/C=C/c3ccc4ccc(nc4c3)[C@@H](C)NC(=O)[C@@H]3CCCN(N3)C(=O)[C@H](C)NC1=O)COCCOC2 [Compound 57] | < 1000 | 100 |  |  |  |
| CC(C)[C@@H]1OC(=O)C(C)(C)/C=C/c2ccc3ccc(nc3c2)[C@@H](C)OC(=O)[C@@H]2CCCN(N2)C(=O)[C@H](C)NC1=O [Compound 19] |  |  | < 100 |  |  |
| CC1NC(=O)C(C(C)C)OC(=O)C2(/C=C/c3ccc4ccc(nc4c3)C(C)NC(=O)C3CCCN(N3)C1=O)CCC(O)CC2 (single isomer, unassigned) [Compound 76] |  |  |  | 69 | < 1000 |
| CC(C)[C@@H]1OC(=O)C2(/C=C/c3ccc4ccc(nc4c3)[C@@H](C)NC(=O)[C@@H]3CCCN(N3)C(=O)[C@H](C)NC1=O)CN(C(=O)OC(C)(C)C)CCO2 (single isomer, unassigned) [Compound 45] |  |  | < 100 |  |  |
| CC(C)[C@@H]1OC(=O)C(C)(C)/C=C/c2ccc3ccc(nc3c2)CN(C)C(=O)[C@@H]2CCCN(N2)C(=O)[C@H](C)NC1=O [Compound 33] |  |  | < 100 |  |  |
| CC1NC(=O)C(C(C)C)OC(=O)C2(/C=C/c3ccc4ccc(nc4c3)C(C)NC(=O)C3CCCN(N3)C1=O)CCC(O)CC2 (single isomer, unassigned) [Compound 74] | < 1000 |  |  | 100 |  |
